The source of these data is patent US8455544B2, “Synthetic triterpenoids and methods of use in the treatment of disease” (Reata Pharmaecuticals, Inc., priority 2008, dated 2013).

One data set relates to RAW264.7 macrophages. In words: Cell viability, WST-1 reagent. The data set is classed as cell-based. As to conditions: Mus musculus, RAW264.7 (20 ng/ml IFNγ).
The subject of data set [1] is NQO1 in Hepa1c1c7 murine hepatoma cells. As to conditions: concentration required to induce a two-fold increase in expression of NQO1, Hepa1c1c7 cells; cited from earlier work.
The test system of data set [2] is IFNγ-induced NO production in RAW264.7 macrophages. In words: Suppression of IFNγ-induced NO production (Griess reagent system). It counts as cell-based. As to conditions: Mus musculus; RAW264.7, pre-treated 2 hours, then 20 ng/ml IFNγ for 24 hours.
Details of data set [3]: unit not given here. As to conditions: six-month, cited from earlier work.
The conditions of data set [4]: cynomolgus monkey, in vivo, po, 4.1 mg/kg.

Like-named read-outs stand apart in the source and are kept apart here. Bounds are passed on as bounds.

Take `CC1(C)CC[C@]2(C(=O)O)CC[C@]3(C)[C@H](C(=O)C=C4[C@@]5(C)C=C(C#N)C(=O)C(C)(C)[C@@H]5CC[C@]43C)[C@@H]2C1` [RTA 401, 2-cyano-3,12-dioxooleane-1,9(11)-dien-28-oic acid]: the IC50 with RAW264.7 macrophages was greater than 200 nM; in data set [2], roughly 10 nM. The “NQO1 CD” value in data set [1] is listed as 2.3 nM.

Take `CC1(C)CC[C@]2(C#N)CC[C@]3(C)[C@H](C(=O)C=C4[C@@]5(C)C=C(C#N)C(=O)C(C)(C)[C@@H]5CC[C@]43C)[C@@H]2C1` [TP-225]: the IC50 in the data set with RAW264.7 macrophages is 75 nM; in data set [2] it was roughly 0.4 nM. Further, in data set [1], the “NQO1 CD” value was 0.28 nM.

Take `N[C@@H](CC(=O)N1CCn2c(nnc2C(F)(F)F)C1)Cc1cc(F)c(F)cc1F` [Sitagliptin]: the “Change (Hemoglobin A1c)” value is recorded as −0.7 in data set [3] (+/− metformin with A1c ≧ 7.5, mean A1c 8.9, duration of DM 4.4 years); −0.8 in data set [3] (+/− placebo with A1c ≧ 7.0, mean A1c 8.0, duration of DM 4.3 years); −0.7 in data set [3] (pioglitazone +/− sitagliptin, A1c ≧ 7.0, mean A1c 8.1, duration of DM 6.1 years).

On to `CCNC(=O)[C@]12CCC(C)(C)C[C@H]1[C@H]1C(=O)C=C3[C@@]4(C)C=C(C#N)C(=O)C(C)(C)[C@@H]4CC[C@@]3(C)[C@]1(C)CC2` [RTA 405], for which the IC50 was roughly 200 nM in the data set on RAW264.7 macrophages and 6 nM in data set [2].

`COC(=O)[C@]12CCC(C)(C)C[C@H]1[C@H]1C(=O)C=C3[C@@]4(C)C=C(C#N)C(=O)C(C)(C)[C@@H]4CC[C@@]3(C)[C@]1(C)CC2` [Form B]: the “Bioavailability compared with Form A” value in data set [4] is given as “higher”.

For Pramlintide acetate, in data set [3] (+/− insulin, mean A1c 9.1, duration of DM 13 years), the “Change (Hemoglobin A1c)” value was −0.4.

For `CC1(C)CC[C@]2(C(=O)n3ccnc3)CC[C@]3(C)[C@H](C(=O)C=C4[C@@]5(C)C=C(C#N)C(=O)C(C)(C)[C@@H]5CC[C@]43C)[C@@H]2C1` [RTA 403], the IC50 with RAW264.7 macrophages was 100 nM; in data set [2], roughly 0.6 nM. Besides, the “NQO1 CD” value in data set [1] is reported as 3.3 nM.

In the case of `CC1(C)CC[C@]2(C(=O)NCC(F)(F)F)CC[C@]3(C)[C@H](C(=O)C=C4[C@@]5(C)C=C(C#N)C(=O)C(C)(C)[C@@H]5CC[C@]43C)[C@@H]2C1` [RTA 404], the figures for the IC50 (in the data set with RAW264.7 macrophages; in data set [2]) were 100 nM and 5.8 nM, respectively.
